Experimental data: PMC6442119, “The antitumor activity of CYB-L10, a human topoisomerase IB catalytic inhibitor” (Journal of Enzyme Inhibition and Medicinal Chemistry, 2019)

Experiments:
Type in all cases: cell-based
DU-145 [1] = assay: MTT assay; conditions: Homo sapiens; Parental cell line DU-145, MTT, 72 h
MCF-7 = assay: MTT assay; conditions: Homo sapiens, MCF7; Parental cell line MCF-7, MTT, 72 h
HOP-62 = assay: NCI60 assay; conditions: Homo sapiens; Non-small cell lung cancer, HOP-62, 48 h
Description: (§1) CYB-L10 was tested using the protocols by the NCI, which has been described previously. […] The overall antiproliferative potential is quantified as a mean-graph midpoint (MGM). […] It was selected and submitted to National Cancer Institute (NCI, USA) for a developmental therapeutics assay against the 60 clinical tumor cell lines representing nine tissue types (NCI60)[23–25]. The tumor cells were incubated with CYB-L10 for 48 h and stained with sulphorhodamine B dye. Cell growth inhibition (GI50) was calculated relative to the control without compound.

UO-31 = assay: NCI60 assay; conditions: Homo sapiens; Renal cancer, UO-31, 48 h
Description: as §1

PC-3 = assay: NCI60 assay; conditions: Homo sapiens; Prostate cancer, PC-3, 48 h
Description: as §1

KM12 = assay: NCI60 assay; conditions: Homo sapiens; Colon cancer, KM12, 48 h
Description: as §1

CCRF-CEM = assay: NCI60 assay; conditions: Homo sapiens, Leukemia, 48 h
Description: as §1

UACC-62 = assay: NCI60 assay; conditions: Homo sapiens; Melanoma, UACC-62, 48 h
Description: as §1

HCT116 = assay: NCI60 assay; conditions: Homo sapiens, HCT-116, Colon cancer, HCT116, 48 h
Description: as §1

RXF 393 = assay: NCI60 assay; conditions: Homo sapiens; Renal cancer, RXF 393, 48 h
Description: as §1

SK-MEL-28 = assay: NCI60 assay; conditions: Homo sapiens; Melanoma, SK-MEL-28, 48 h
Description: as §1

ACHN = assay: NCI60 assay; conditions: Homo sapiens, Renal cancer, 48 h
Description: as §1

A498 = assay: NCI60 assay; conditions: Homo sapiens; Renal cancer, A498, 48 h
Description: as §1

HCC-2998 = assay: NCI60 assay; conditions: Homo sapiens; Colon cancer, HCC-2998, 48 h
Description: as §1

NCI-H522 = assay: NCI60 assay; conditions: Homo sapiens; Non-small cell lung cancer, NCI-H522, 48 h
Description: as §1

MDA-MB-435 = assay: NCI60 assay; conditions: Homo sapiens; Melanoma, MDA-MB-435, 48 h
Description: as §1

HCT-15 = assay: NCI60 assay; conditions: Homo sapiens; Colon cancer, HCT-15, 48 h
Description: as §1

DU-145 [2] = assay: NCI60 assay; conditions: Homo sapiens, Prostate cancer, DU-145, 48 h
Description: as §1

HS 578T = assay: NCI60 assay; conditions: Homo sapiens, Breast cancer, 48 h
Description: as §1

786-0 = assay: NCI60 assay; conditions: Homo sapiens; Renal cancer, 786-0, 48 h
Description: as §1

NCI-H322M = assay: NCI60 assay; conditions: Homo sapiens, Non-small cell lung cancer, 48 h
Description: as §1

NCI/ADR-RES = assay: NCI60 assay; conditions: Homo sapiens, Ovarian cancer, 48 h
Description: as §1

IGROV1 = assay: NCI60 assay; conditions: Homo sapiens, IGROV-1; Ovarian cancer, IGROV1, 48 h
Description: as §1

SN 12C = assay: NCI60 assay; conditions: Homo sapiens, SN12C, Renal cancer, 48 h
Description: as §1

U251 = assay: NCI60 assay; conditions: Homo sapiens, U-251; CNS cancer, U251, 48 h
Description: as §1

SR = assay: NCI60 assay; conditions: Homo sapiens, Leukemia, 48 h
Description: as §1

SNB-75 = assay: NCI60 assay; conditions: Homo sapiens; CNS cancer, SNB-75, 48 h
Description: as §1

COLO 205 = assay: NCI60 assay; conditions: Homo sapiens; Colon cancer, COLO 205, 48 h
Description: as §1

LOX IMVI = assay: NCI60 assay; conditions: Homo sapiens, Melanoma, 48 h
Description: as §1

UACC-257 = assay: NCI60 assay; conditions: Homo sapiens; Melanoma, UACC-257, 48 h
Description: as §1

NCI-H23 = assay: NCI60 assay; conditions: Homo sapiens; Non-small cell lung cancer, NCI-H23, 48 h
Description: as §1

BT-549 = assay: NCI60 assay; conditions: Homo sapiens; Breast cancer, BT-549, 48 h
Description: as §1

HT29 = assay: NCI60 assay; conditions: Homo sapiens, HT-29; Colon cancer, HT29, 48 h
Description: as §1

NCI-H460 = assay: NCI60 assay; conditions: Homo sapiens; Non-small cell lung cancer, NCI-H460, 48 h
Description: as §1

MDA-MB-231/ATCC = assay: NCI60 assay; conditions: Homo sapiens, Breast cancer, 48 h
Description: as §1

SNB-19 = assay: NCI60 assay; conditions: Homo sapiens; CNS cancer, SNB-19, 48 h
Description: as §1

T-47D = assay: NCI60 assay; conditions: Homo sapiens, T47D, Breast cancer, 48 h
Description: as §1

A549/ATCC = assay: NCI60 assay; conditions: Homo sapiens, Non-small cell lung cancer, 48 h
Description: as §1

K-562 = assay: NCI60 assay; conditions: Homo sapiens, K562; Leukemia, K-562, 48 h
Description: as §1

EKVX = assay: NCI60 assay; conditions: Homo sapiens, Non-small cell lung cancer, 48 h
Description: as §1

SMILES: O=C1c2cccnc2C(=O)c2c1c(C(=O)OCCN1CCOCC1)c1ccccn21 [CYB-L10]
- GI50 (DU-145 [1]): 16 ± 10 nM
- GI50 (MCF-7): 91 nM
- GI50 (HOP-62): < 10 nM
- GI50 (UO-31): 13 nM
- GI50 (PC-3): 190 nM
- GI50 (KM12): 168 nM
- GI50 (CCRF-CEM): 379 nM
- GI50 (UACC-62): < 10 nM
- GI50 (HCT116): 41.7 nM
- GI50 (RXF 393): 35.1 nM
- GI50 (SK-MEL-28): 54.6 nM
- GI50 (ACHN): < 10 nM
- GI50 (A498): 34.3 nM
- GI50 (HCC-2998): 252 nM
- GI50 (NCI-H522): 11.9 nM
- GI50 (MDA-MB-435): 64.6 nM
- GI50 (HCT-15): 39.5 nM
- GI50 (DU-145 [2]): 30.5 nM
- GI50 (HS 578T): 36.9 nM
- GI50 (786-0): 29 nM
- GI50 (NCI-H322M): 97.7 nM
- GI50 (NCI/ADR-RES): 36.8 nM
- GI50 (IGROV1): 46.2 nM
- GI50 (SN 12C): < 10 nM
- GI50 (U251): 10.9 nM
- GI50 (SR): < 10 nM
- GI50 (SNB-75): < 10 nM
- GI50 (COLO 205): 137 nM
- GI50 (LOX IMVI): < 10 nM
- GI50 (UACC-257): 54.6 nM
- GI50 (NCI-H23): < 10 nM
- GI50 (BT-549): 55.8 nM
- GI50 (HT29): 580 nM
- GI50 (NCI-H460): < 10 nM
- GI50 (MDA-MB-231/ATCC): 1620 nM
- GI50 (SNB-19): < 10 nM
- GI50 (T-47D): 961 nM
- GI50 (A549/ATCC): 20.5 nM
- GI50 (K-562): 28.2 nM
- GI50 (EKVX): 1360 nM
